The values that follow come from ChEMBL document CHEMBL2331404, “Mono-/dihydroxybenzoic acid esters and phenol pyridinium derivatives as inhibitors of the mammalian carbonic anhydrase isoforms I, II, VII, IX, XII and XIV” (Bioorg Med Chem, 2013).

The target in assay [1] is Carbonic anhydrase 14 (Homo sapiens, UniProt Q9ULX7).
Description: Inhibition of human carbonic anhydrase 14 preincubated for 15 mins by CO2 hydration stopped-flow assay
The target of assay [2] is Carbonic anhydrase 9 (Homo sapiens, UniProt Q16790).
Description: Inhibition of human carbonic anhydrase 9 preincubated for 15 mins by CO2 hydration stopped-flow assay
Assay [3] deals with Carbonic anhydrase 1 (Homo sapiens, UniProt P00915).
Description: Inhibition of human carbonic anhydrase 1 preincubated for 15 mins by CO2 hydration stopped-flow assay
The target of assay [4] is Carbonic anhydrase 12 (Homo sapiens, UniProt O43570).
Assay [5] has as its target Carbonic anhydrase 7 (Homo sapiens, UniProt P43166). As to the kind of experiment: Inhibition of human carbonic anhydrase 7 preincubated for 15 mins by CO2 hydration stopped-flow assay.
In assay [6] the target is Carbonic anhydrase 2 (Homo sapiens, UniProt P00918).
Description: Inhibition of human carbonic anhydrase 2 preincubated for 15 mins by CO2 hydration stopped-flow assay

Each structure is given as a SMILES string.

Carbonic anhydrase 1, sequence (P00915 whole entry): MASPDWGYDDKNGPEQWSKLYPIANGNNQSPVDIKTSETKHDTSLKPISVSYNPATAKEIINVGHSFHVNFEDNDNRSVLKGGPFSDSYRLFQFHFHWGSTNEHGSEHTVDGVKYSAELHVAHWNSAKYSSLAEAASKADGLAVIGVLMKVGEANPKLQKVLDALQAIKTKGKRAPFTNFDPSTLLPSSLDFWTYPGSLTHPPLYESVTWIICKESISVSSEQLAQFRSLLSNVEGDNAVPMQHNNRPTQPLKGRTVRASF
Carbonic anhydrase 14, sequence (Q9ULX7 whole entry): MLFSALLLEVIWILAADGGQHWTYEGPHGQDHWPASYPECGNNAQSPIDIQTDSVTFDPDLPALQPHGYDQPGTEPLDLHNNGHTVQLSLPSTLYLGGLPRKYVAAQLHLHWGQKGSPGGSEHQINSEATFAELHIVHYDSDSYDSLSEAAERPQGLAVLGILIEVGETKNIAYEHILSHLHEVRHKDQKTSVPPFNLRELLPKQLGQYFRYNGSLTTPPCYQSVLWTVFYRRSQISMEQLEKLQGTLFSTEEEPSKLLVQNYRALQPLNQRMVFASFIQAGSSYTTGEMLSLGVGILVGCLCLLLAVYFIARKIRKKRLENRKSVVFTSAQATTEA
Carbonic anhydrase 7, sequence (P43166 whole entry): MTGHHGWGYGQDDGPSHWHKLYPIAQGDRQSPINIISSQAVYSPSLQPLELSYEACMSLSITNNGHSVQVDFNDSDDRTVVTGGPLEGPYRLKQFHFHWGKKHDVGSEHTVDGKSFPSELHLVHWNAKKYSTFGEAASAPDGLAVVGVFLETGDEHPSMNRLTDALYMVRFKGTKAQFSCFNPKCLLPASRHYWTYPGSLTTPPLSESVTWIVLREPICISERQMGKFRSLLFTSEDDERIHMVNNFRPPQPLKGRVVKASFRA
Carbonic anhydrase 12, sequence (O43570 whole entry): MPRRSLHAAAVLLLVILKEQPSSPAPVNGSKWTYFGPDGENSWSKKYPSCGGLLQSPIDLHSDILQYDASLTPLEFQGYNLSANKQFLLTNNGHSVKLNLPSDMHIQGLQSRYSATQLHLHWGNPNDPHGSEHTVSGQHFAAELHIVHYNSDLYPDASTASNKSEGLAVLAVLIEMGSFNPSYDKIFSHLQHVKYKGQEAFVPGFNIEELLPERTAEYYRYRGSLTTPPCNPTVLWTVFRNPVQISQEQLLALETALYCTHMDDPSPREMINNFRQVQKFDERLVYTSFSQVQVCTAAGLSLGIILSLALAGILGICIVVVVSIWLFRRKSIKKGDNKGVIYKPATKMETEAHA

By Ki is commonly meant the dissociation constant of the complex between target and ligand, obtained from inhibition or displacement. With `O=C(O)c1cc(O)ccc1O` [GENTISIC ACID], the Ki in assay [1] is 67000 nM; in assay [2], 6600 nM; in assay [3], 4200 nM; in assay [4], 7300 nM; in assay [5], 68000 nM.
As for `CCOC(=O)c1cc(O)ccc1O`, the Ki in assay [6] was found to be 690 nM.
As for `CC(C)OC(=O)c1ccc(O)c(O)c1`, the figures for the Ki in assay [2] and in assay [6] were 800 nM and 420 nM, respectively.
As to `O=C(O)c1c(O)cccc1O`, the Ki in assay [1] turned out to be 6500 nM; in assay [2] it was 5900 nM; in assay [3], 5700 nM; in assay [4], 7200 nM; in assay [5], 6600 nM; in assay [6], 5200 nM.
Take `COC(=O)c1ccc(O)cc1` [METHYLPARABEN]: the Ki is 4100 nM in assay [1]; 5500 nM in assay [2]; 2600 nM in assay [3]; 820 nM in assay [4]; 780 nM in assay [5]; 3400 nM in assay [6].
Consider `O=C(O)c1cc(O)cc(O)c1` [3,5-DIHYDROXYBENZOIC ACID], for which the Ki in assay [1] is 650 nM; in assay [5], 7170 nM.
In the case of `CC(C)OC(=O)c1c(O)cccc1O`, the Ki in assay [2] worked out at 790 nM; in assay [6], 530 nM.
As for `CCOC(=O)c1ccc(O)cc1O`, the Ki is 820 nM in assay [2] and 520 nM in assay [6].
In the same order, the values of `COC(=O)c1cc(O)cc(O)c1` [METHYL 3,5-DIHYDROXYBENZOATE] are 810 nM and 690 nM.
With `CC(C)OC(=O)c1ccc(O)cc1O`, the Ki worked out at 310 nM in assay [2] and 510 nM in assay [6].
With `O=C(O)c1ccc(O)cc1O` [2,4-DIHYDROXYBENZOIC ACID], the Ki is 70000 nM in assay [1]; 68000 nM in assay [2]; 5200 nM in assay [3]; 7500 nM in assay [4]; 72000 nM in assay [5]; 4900 nM in assay [6].
As for `COC(=O)c1ccc(O)c(O)c1` [METHYL PROTOCATECHUATE], the Ki came out at 790 nM in assay [2] and 580 nM in assay [6].
Take `CCOC(=O)c1cc(O)cc(O)c1`: the Ki in assay [2] is 910 nM; in assay [6] it was 660 nM.
`CC(C)OC(=O)c1cc(O)ccc1O`: the figures for the Ki in assay [2] and in assay [6] were 810 nM and 580 nM, respectively.
Taken in the same sequence, the figures for `Cc1cc(C)[n+](CCc2ccccc2C)c(C)c1` were 830 nM and 6800 nM.
Taken in the same sequence, the figures for `Cc1cc(C)[n+](CCc2ccccc2-c2ccccc2)c(C)c1` were 710 nM and 4700 nM.
For the molecule `O=C(O)c1ccc(O)c(O)c1` [PROTOCATECHUIC ACID], the Ki in assay [1] came to 690 nM; in assay [5] it was 7870 nM.
With `CC(C)OC(=O)/C=C/c1ccc(O)cc1` [ISOPROPYL 3-(4-HYDROXYPHENYL)ACRYLATE], the Ki in assay [1] came to 730 nM; in assay [2], 680 nM; in assay [3] it was 540 nM; in assay [4], 760 nM; in assay [5], 690 nM; in assay [6] it was 520 nM.
Turning to `CC(C)OC(=O)c1ccc(O)cc1` [ISOPROPYL 4-HYDROXYBENZOATE], the Ki in assay [2] was 7400 nM; in assay [6], 4400 nM.
In the same order, the values of `Cc1cc(C)[n+](-c2cc(O)ccc2Cl)c(C)c1` are 700 nM and 490 nM.
In the case of `COC(=O)/C=C/c1ccc(O)cc1` [METHYL P-HYDROXYCINNAMATE], the Ki was 830 nM in assay [1]; 850 nM in assay [2]; 780 nM in assay [3]; 810 nM in assay [4]; 820 nM in assay [5]; 800 nM in assay [6].
For the molecule `Nc1cc(O)ccc1Cl`, the Ki came to 4700 nM in assay [2] and 4900 nM in assay [6].
With `CCOC(=O)c1c(O)cccc1O`, the Ki in assay [2] turned out to be 780 nM; in assay [6], 560 nM.
Take `CCOC(=O)c1ccc(O)cc1` [ETHYLPARABEN]: the Ki in assay [1] amounted to 7700 nM; in assay [2], 8200 nM; in assay [3] it was 7900 nM; in assay [4], 8600 nM; in assay [5], 8700 nM; in assay [6], 4800 nM.
For `COC(=O)c1ccc(O)cc1O` [METHYL 2,4-DIHYDROXYBENZOATE], the Ki in assay [1] is 860 nM; in assay [2] it was 890 nM; in assay [3] it was 830 nM; in assay [4] it was 950 nM; in assay [5], 850 nM; in assay [6], 760 nM.
Consider `CC(C)OC(=O)c1cc(O)cc(O)c1`, for which the results for the Ki in assay [2] and in assay [6] were 900 nM and 700 nM, respectively.
Turning to `CCOC(=O)c1ccc(O)c(O)c1`, the Ki in assay [2] was found to be 780 nM; in assay [6], 610 nM.
As for `Nc1cccc(O)c1` [3-AMINOPHENOL], the Ki stood at 7200 nM in assay [1]; 4900 nM in assay [2]; 4900 nM in assay [3]; 7700 nM in assay [4]; 5900 nM in assay [5]; 4700 nM in assay [6].
Regarding `COc1ccc(OC)cc1` [1,4-DIMETHOXYBENZENE], the Ki in assay [1] came to 6790 nM; in assay [5], 3880 nM.
In the case of `CCOC(=O)/C=C/c1ccc(O)cc1` [ETHYL P-COUMARATE], the Ki in assay [2] came to 610 nM; in assay [6], 710 nM.
Take `COC(=O)c1cc(O)ccc1O` [METHYL 2,5-DIHYDROXYBENZOATE]: the Ki in assay [2] was 840 nM; in assay [6], 770 nM.
In the same order, the values of `COC(=O)c1c(O)cccc1O` are 810 nM and 700 nM.
For the molecule `Cc1cc(C)[n+](-c2cccc(O)c2)c(C)c1`, the Ki in assay [2] came to 680 nM; in assay [6], 320 nM.
For `O=C(O)c1cc(-c2c3ccc(=O)cc-3oc3cc(O)ccc23)ccc1NC(=S)NCCc1ccc(O)c(O)c1`, the Ki in assay [2] turned out to be 6700 nM; in assay [6] it was 4400 nM.
On to `COc1ccc(C(=O)O)cc1OC` [VERATRIC ACID], for which the values for the Ki in assay [1] and in assay [5] were 740 nM and 7150 nM, respectively.
